Experimental data as given in patent US9193736B2, “PDE 10a inhibitors for the treatment of type II diabetes” (Janssen Pharmaceutica, NV, priority 2013, dated 2015).
Structures can show the parent of a compound that is named as a salt.

Tests used:
[1] = biological target: Rat recombinant PDE10a (rPDE10a) (Rattus norvegicus (Rat), UniProt Q9QYJ6); experiment: In vitro assay PDE10a: rat recombinant PDE10a SPA with 3H-cAMP substrate, IC50; assay type: biochemical; details: 60 nM cAMP, read-out: rPDE10a2 IC50
Chain of Rat recombinant PDE10a (rPDE10a) (Q9QYJ6 whole entry): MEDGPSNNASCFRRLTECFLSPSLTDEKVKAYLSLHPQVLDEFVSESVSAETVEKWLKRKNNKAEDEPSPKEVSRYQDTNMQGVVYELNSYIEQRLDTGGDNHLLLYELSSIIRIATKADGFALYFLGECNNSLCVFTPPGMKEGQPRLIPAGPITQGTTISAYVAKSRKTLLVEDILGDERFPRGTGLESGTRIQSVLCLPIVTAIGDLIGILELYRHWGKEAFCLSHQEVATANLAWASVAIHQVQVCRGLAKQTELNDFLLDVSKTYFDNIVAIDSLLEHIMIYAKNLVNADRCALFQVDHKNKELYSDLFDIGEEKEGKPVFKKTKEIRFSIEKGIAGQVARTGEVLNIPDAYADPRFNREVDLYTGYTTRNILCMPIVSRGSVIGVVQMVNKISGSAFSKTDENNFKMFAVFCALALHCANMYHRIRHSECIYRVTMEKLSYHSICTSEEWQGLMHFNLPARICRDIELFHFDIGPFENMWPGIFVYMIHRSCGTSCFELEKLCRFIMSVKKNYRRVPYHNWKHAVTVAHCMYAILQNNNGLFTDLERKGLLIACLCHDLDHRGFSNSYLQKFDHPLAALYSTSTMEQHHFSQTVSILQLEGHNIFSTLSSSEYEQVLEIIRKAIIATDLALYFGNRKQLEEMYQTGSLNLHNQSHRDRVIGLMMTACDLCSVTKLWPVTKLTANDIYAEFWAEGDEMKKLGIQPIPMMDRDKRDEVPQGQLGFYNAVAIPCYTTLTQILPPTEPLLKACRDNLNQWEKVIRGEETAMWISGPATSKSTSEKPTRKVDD
Procedure, shortened: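 Enzyme expressed in Sf9 cells via baculovirus and Ni-sepharose purified; reaction with 3H-cAMP ran 60 min at rt, stopped with PDE SPA beads. Compounds diluted in DMSO at 100-fold final concentration; blanks omitted enzyme.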

[2] = biological target: Human recombinant PDE10A2 (Homo sapiens (Human), UniProt Q9Y233); experiment: In vitro hPDE10a: human recombinant PDE10A2 scintillation proximity assay, IC50; assay type: biochemical; details: human recombinant PDE10A2, SPA, 60 nM cAMP; read-out: hPDE10a2 IC50
Chain of Human recombinant PDE10A2 (Q9Y233 267-1055): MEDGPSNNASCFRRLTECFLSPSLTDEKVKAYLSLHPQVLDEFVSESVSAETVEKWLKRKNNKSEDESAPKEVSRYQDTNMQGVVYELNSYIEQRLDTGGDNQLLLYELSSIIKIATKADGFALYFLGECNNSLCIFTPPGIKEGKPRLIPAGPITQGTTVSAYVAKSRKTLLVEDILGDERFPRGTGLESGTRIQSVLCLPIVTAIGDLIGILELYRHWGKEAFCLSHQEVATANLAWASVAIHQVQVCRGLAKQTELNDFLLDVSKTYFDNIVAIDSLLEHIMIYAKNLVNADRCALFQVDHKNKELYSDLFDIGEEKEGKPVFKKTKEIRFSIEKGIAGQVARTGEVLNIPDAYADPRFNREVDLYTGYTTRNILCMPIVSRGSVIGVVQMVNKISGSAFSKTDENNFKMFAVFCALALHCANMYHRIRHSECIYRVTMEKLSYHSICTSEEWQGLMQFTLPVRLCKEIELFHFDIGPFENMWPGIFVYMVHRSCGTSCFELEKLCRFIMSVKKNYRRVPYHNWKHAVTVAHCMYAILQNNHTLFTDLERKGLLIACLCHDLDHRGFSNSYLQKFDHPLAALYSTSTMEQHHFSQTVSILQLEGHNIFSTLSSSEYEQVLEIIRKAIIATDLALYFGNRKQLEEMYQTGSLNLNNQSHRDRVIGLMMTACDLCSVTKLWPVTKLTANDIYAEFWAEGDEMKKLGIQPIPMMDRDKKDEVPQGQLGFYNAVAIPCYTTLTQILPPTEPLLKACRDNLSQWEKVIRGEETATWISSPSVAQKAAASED
Procedure, shortened: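 Purified recombinant human PDE10A2 (Ni-sepharose) was assayed by SPA, counting [3H]-AMP product captured on yttrium silicate beads added in zinc sulphate stop solution. Inhibition was expressed as % of activity without compound, with a no-enzyme low control. Repeat data points were aggregated.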

| Structure (SMILES) | IC50 [1] [nM] | IC50 [2] [nM] |
| --- | --- | --- |
| O=C(O)c1ccc(-c2c(C#Cc3nc4ccccc4s3)nc3c(N4CCOCC4)ccnn23)cc1 [Cpd 87, 4-(2-(Benzo[d]thiazol-2-ylethynyl)-8-morpholinoimidazo[1,2-b]pyridazin-3-yl)benzoic acid] | 1 | 1 |
| O=C(O)c1ccc(-c2c(/C=C/c3ccccn3)nc3c(N4CCOCC4)ccnn23)cc1 [Cpd 89, (E)-4-(8-Morpholino-2-(2-(pyridin-2-yl)vinyl)imidazo[1,2-b]pyridazin-3-yl)benzoic acid] | 62 | 89 |
| COc1cc(-c2c(CCc3ccc4ccccc4n3)nc3c(N4CCOCC4)ccnn23)ccc1C(=O)O [compound 69, 2-Methoxy-4-(8-morpholino-2-(2-(quinolin-2-yl)ethyl)imidazo[1,2-b]pyridazin-3-yl)benzoic acid] | 4 | 6 |
| CS(=O)(=O)NC(=O)Nc1ccc(-c2c(CCc3ccc4ccccc4n3)nc3c(N4CCOCC4)ccnn23)cc1 [Cpd 51, N-({4-[8-Morpholin-4-yl-2-(2-quinolin-2-ylethyl)imidazo[1,2-b]pyridazin-3-yl]phenyl}carbamoyl)methanesulfonamide] | 4 | 6 |
| Nc1ccc(-c2c(/C=C/c3ccc4ccccc4n3)nc3c(N4CCOCC4)ccnn23)cn1 [Cpd 18, (E)-5-(8-Morpholino-2-(2-(quinolin-2-yl)vinyl)imidazo[1,2-b]pyridazin-3-yl)pyridin-2-amine] | 3 | 6 |
| COc1cc(-c2c(C#Cc3ccc4ccccc4n3)nc3c(N4CCOCC4)ccnn23)ccc1C(=O)O [compound 91, 2-Methoxy-4-(8-morpholino-2-(quinolin-2-ylethynyl)imidazo[1,2-b]pyridazin-3-yl)benzoic acid] | < 1 | < 1 |
| O=c1[nH]c(-c2ccc(-c3c(/C=C/c4ccc5ccccc5n4)nc4c(N5CCOCC5)ccnn34)cn2)no1 [Cpd 34, (E)-3-(5-(8-Morpholino-2-(2-(quinolin-2-yl)vinyl)imidazo[1,2-b]pyridazin-3-yl)pyridin-2-yl)-1,2,4-oxadiazol-5(4H)-one] | 2 | 3 |
| O=c1ncn(-c2ccc(-c3c(/C=C/c4ccc5ccccc5n4)nc4c(N5CCOCC5)ccnn34)cn2)[nH]1 [Cpd 56, (E)-1-(5-(8-Morpholino-2-(2-(quinolin-2-yl)vinyl)imidazo[1,2-b]pyridazin-3-yl)pyridin-2-yl)-1,2-dihydro-1,2,4-triazol-3-one trifluoroacetic acid salt] | 7 | 4 |
| O=C(O)c1ccc(-c2c(CCc3ccc4ccccc4n3)nc3c(N4CCOCC4)ccnn23)o1 [compound 60, 5-(8-Morpholino-2-(2-(quinolin-2-yl)ethyl)imidazo[1,2-b]pyridazin-3-yl)furan-2-carboxylic acid] | < 1 | < 1 |
| C(=C\c1nc2c(N3CCOCC3)ccnn2c1-c1ccc(N2CCNCC2)nc1)/c1ccc2ccccc2n1 [Cpd 177, (E)-4-(3-(6-(piperazin-1-yl)pyridin-3-yl)-2-(2-(quinolin-2-yl)vinyl)imidazo[1,2-b]pyridazin-8-yl)morpholine trifluoroacetic acid salt] | 10 | 21 |
| c1ccc2nc(SCc3nc4c(N5CCOCC5)ccnn4c3-c3ccc(-c4nnn[nH]4)nc3)ccc2c1 [Cpd 32, 4-(3-(6-(1H-Tetrazol-5-yl)pyridin-3-yl)-2-((quinolin-2-ylthio)methyl)imidazo[1,2-b]pyridazin-8-yl)morpholine trifluoroacetic acid salt] | 1 | 2 |
| COc1cccc(/C=C/c2nc3c(N4CCOCC4)ccnn3c2-c2ccc(C(=O)O)cc2)n1 [Cpd 133, 4-{2-[(E)-2-(6-Methoxypyridin-2-yl)ethenyl]-8-morpholin-4-ylimidazo[1,2-b]pyridazin-3-yl}benzoic acid] | 70 | 62 |
| CCN(CC)c1ccc(-c2c(COc3ccc4ccccc4n3)nc3c(N4CCOCC4)ccnn23)cn1 [Cpd 7, N,N-diethyl-5-(8-morpholino-2-((quinolin-2-yloxy)methyl)imidazo[1,2-b]pyridazin-3-yl)pyridin-2-amine methane sulfonic acid] | 447 | 692 |
| CS(=O)(=O)NC(=O)c1ccc(-c2c(CSc3ccc4ccccc4n3)nc3c(N4CCOCC4)ccnn23)cc1 [Cpd 120, N-(Methylsulfonyl)-4-(8-morpholino-2-((quinolin-2-ylthio)methyl)imidazo[1,2-b]pyridazin-3-yl)benzamide] | 2 | 3 |
| O=C(O)c1ccc(-c2c(C#Cc3ccc4ccccc4n3)nc3c(N4CCOCC4)ccnn23)s1 [Cpd 85, 5-(8-Morpholino-2-(quinolin-2-ylethynyl)imidazo[1,2-b]pyridazin-3-yl)thiophene-2-carboxylic acid] | < 1 | < 1 |
| O=C(O)[C@@H]1CCCN1C(=O)c1ccc(-c2c(/C=C/c3ccc4ccccc4n3)nc3c(N4CCOCC4)ccnn23)cc1 [Cpd 71, (S,E)-1-(4-(8-Morpholino-2-(2-(quinolin-2-yl)vinyl)imidazo[1,2-b]pyridazin-3-yl)benzoyl)pyrrolidine-2-carboxylic acid trifluoroacetic acid salt] | 8 | 6 |
| O=S(=O)(Cc1nc2c(N3CCOCC3)ccnn2c1-c1ccc(N2CCNCC2)nc1)c1ccc2ccccc2n1 [Cpd 9, 4-(3-(6-(piperazin-1-yl)pyridin-3-yl)-2-((quinolin-2-ylsulfonyl)methyl)imidazo[1,2-b]pyridazin-8-yl)morpholine trifluoroacetic acid salt] | 132 | 427 |
| O=C(O)c1ccc(-c2c(/C=C/c3ccc4ccccc4n3)nc3c(N4CCOCC4)ccnn23)o1 [Cpd 58] | 4 | 2 |
| CN(C)c1ccc(-c2c(COc3ccc4ccccc4n3)nc3c(N4CCOCC4)ccnn23)cn1 [Cpd 5, N,N-dimethyl-5-(8-morpholino-2-((quinolin-2-yloxy)methyl)imidazo[1,2-b]pyridazin-3-yl)pyridin-2-amine methane sulfonic acid] | 457 | 126 |
| CS(=O)(=O)NC(=O)c1cccc2nc(/C=C/c3nc4c(N5CCOCC5)ccnn4c3-c3ccccc3)ccc12 [Cpd 122, (E)-N-(Methylsulfonyl)-2-(2-(8-morpholino-3-phenylimidazo[1,2-b]pyridazin-2-yl)vinyl)quinoline-5-carboxamide] | 7 | 4 |
| O=C(O)c1ccc(-c2c(CCc3ccc4ccccc4n3)nc3c(N4CCOCC4)ccnn23)cc1O [compound 64, 2-Hydroxy-4-(8-morpholino-2-(2-(quinolin-2-yl)ethyl)imidazo[1,2-b]pyridazin-3-yl)benzoic acid] | 2 | 1 |
| O=C(O)C1CCC(Nc2c(/C=C/c3ccc4ccccc4n3)nc3c(N4CCOCC4)ccnn23)CC1 (stereo not drawn) [Cpd 152, (E)-4-((8-Morpholino-2-(2-(quinolin-2-yl)vinyl)imidazo[1,2-b]pyridazin-3-yl)amino)cyclohexanecarboxylic acid] | 15 | 7 |
| O=C(O)c1cccc(-c2c(C#Cc3ccc4ccccc4n3)nc3c(N4CCOCC4)ccnn23)c1 [Cpd 88, 3-(8-Morpholino-2-(quinolin-2-ylethynyl)imidazo[1,2-b]pyridazin-3-yl)benzoic acid trifluoroacetic acid salt] | < 1 | < 1 |
| O=C(O)c1ccc2ccc(/C=C/c3cn4nc(Cl)cc(N5CCOCC5)c4n3)nc2c1 [Cpd 94, 2-[(E)-2-(6-Chloro-8-morpholin-4-ylimidazo[1,2-b]pyridazin-2-yl)ethenyl]quinoline-7-carboxylic acid] | 82 | 53 |
| CC(C)[C@H](Nc1ccc(-c2c(/C=C/c3ccc4ccccc4n3)nc3c(N4CCOCC4)ccnn23)cc1)C(=O)O [Cpd 99, (S,E)-3-Methyl-2-(4-(8-morpholino-2-(2-(quinolin-2-yl)vinyl)imidazo[1,2-b]pyridazin-3-yl)phenylamino)butanoic acid trifluoroacetic acid salt] | 12 | 10 |
| COc1cc(C(=O)O)ccc1-c1c(/C=C/c2ccc3ccccc3n2)nc2c(N3CCOCC3)ccnn12 [compound 98, (E)-3-Methoxy-4-(8-morpholino-2-(2-(quinolin-2-yl)vinyl)imidazo[1,2-b]pyridazin-3-yl)benzoic acid] | 3 | 3 |
| Oc1ccc(-c2c(/C=C/c3ccc4ccccc4n3)nc3c(N4CCOCC4)ccnn23)cn1 [Cpd 16, (E)-5-(8-Morpholino-2-(2-(quinolin-2-yl)vinyl)imidazo[1,2-b]pyridazin-3-yl)pyridin-2-ol] | 6 | 6 |
| O=C(O)c1ccc(-c2c(/C=C/c3ccc4ccccc4n3)nc3c(N4CCOCC4)ccnn23)cc1O [compound 63, (E)-2-Hydroxy-4-(8-morpholino-2-(2-(quinolin-2-yl)vinyl)imidazo[1,2-b]pyridazin-3-yl)benzoic acid] | 3 | 3 |
| CC(C)[C@H](NC(=O)c1ccc(-c2c(C#Cc3ccc4ccccc4n3)nc3c(N4CCOCC4)ccnn23)cc1)C(=O)O [Cpd 101, (S)-3-Methyl-2-(4-(8-morpholino-2-(quinolin-2-ylethynyl)imidazo[1,2-b]pyridazin-3-yl)benzamido)butanoic acid trifluoroacetic acid salt] | 5 | 4 |
| CS(=O)(=O)NC(=O)C1CCN(c2c(/C=C/c3ccc4ccccc4n3)nc3c(N4CCOCC4)ccnn23)CC1 [compound 153, (E)-N-(Methylsulfonyl)-1-(8-morpholino-2-(2-(quinolin-2-yl)vinyl)imidazo[1,2-b]pyridazin-3-yl)piperidine-4-carboxamide] | 4 | 3 |
